Experimental data published in patent publication US4623662A, “Antiatherosclerotic ureas and thioureas” (American Cyanamid Company, priority 1985, dated 1986).
Read-outs that look alike come from different tables or passages of the source.

What was measured:
cholesterol absorption = test: Inhibition of cholesterol absorption in rats fed 1% cholesterol:0.5% cholic acid diet; format: in vivo, male Sprague-Dawley rats; details: po, 336 h, rat, 2 weeks; for response vs control in vivo at 0.01 %: dose .01% of the diet; for response vs control in vivo at 0.03 %: dose .03% of the diet
How it was run: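 Compound was mixed into the diet (0.001-0.03%) of male Sprague-Dawley rats, 150-170 g, on a 1% cholesterol/0.5% cholic acid regimen for 2 weeks. At sacrifice, serum cholesterol (enzymatic) and liver neutral-sterol cholesterol were measured; values given as percent of compound-free control rats.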

[1] = target: T1, fatty acyl CoA: cholesterol acyl transferase (ACAT) (Rattus norvegicus, UniProt O70536); test: Inhibition of fatty acyl CoA:cholesterol acyl transferase (ACAT), rat adrenal enzyme; format: biochemical; details: for IC50: several concentrations
T1 construct: The supernatant, containing the microsomal fraction, served as the source of the cholesterol-esterifying enzyme; from tissue; host or cells: rat adrenals, supernatant of 1,000 x g centrifugation containing the microsomal fraction
T1 sequence (O70536 1-545): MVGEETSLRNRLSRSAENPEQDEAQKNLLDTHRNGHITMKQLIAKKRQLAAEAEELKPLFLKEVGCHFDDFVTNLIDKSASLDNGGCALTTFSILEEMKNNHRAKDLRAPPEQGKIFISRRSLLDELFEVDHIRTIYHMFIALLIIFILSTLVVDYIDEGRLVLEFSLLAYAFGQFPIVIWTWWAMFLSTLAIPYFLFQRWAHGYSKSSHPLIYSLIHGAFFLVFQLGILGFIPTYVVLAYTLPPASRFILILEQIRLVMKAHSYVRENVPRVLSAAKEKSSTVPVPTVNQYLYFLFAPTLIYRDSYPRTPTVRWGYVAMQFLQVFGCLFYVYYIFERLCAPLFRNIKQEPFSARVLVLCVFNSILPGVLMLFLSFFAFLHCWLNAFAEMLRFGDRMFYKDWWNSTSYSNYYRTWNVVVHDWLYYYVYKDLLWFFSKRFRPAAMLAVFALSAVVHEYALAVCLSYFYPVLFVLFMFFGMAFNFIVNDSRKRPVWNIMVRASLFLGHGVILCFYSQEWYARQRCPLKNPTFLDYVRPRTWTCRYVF
How it was run: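 Read-out was scintillation counting of [14C]cholesteryl ester, isolated by TLC, after 10 min at 37° C with [14C]oleoyl CoA. Beforehand, compound (final 5.2 μg/ml in single-concentration tests) was preincubated 10 min at 37° C with BSA and rat adrenal microsomal supernatant in pH 7.4 phosphate. Results given as percent inhibition versus control or IC50 over several concentrations.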

[2] = read-out: LS (liver sterol), percentage of control values
[3] = read-out: SS (serum sterol), percentage of control values
[4] = rat adrenal ACAT, final concentration 5.2 μg/ml, read-out: % Inhibition

Row | SMILES | IC50 ([1]; rat adrenal ACAT) | inhibition at 5.2 µg/mL [1, 4] | response vs control in vivo at 0.01 % (cholesterol absorption; [2]) | response vs control in vivo at 0.01 % (cholesterol absorption; [3]) | response vs control in vivo at 0.03 % (cholesterol absorption; [2]) | response vs control in vivo at 0.03 % (cholesterol absorption; [3]) | inhibition at 5.2 µg/mL [1]
1 | CCCCCCCN(Cc1ccc(CCC(C)C)cc1)C(=O)Nc1ccc(Cl)cc1C [1-(n-Heptyl)-1-[4-(4-isopentyl)benzyl]-3-(4-chloro-2-methylphenyl)urea] | 2.4 µM | – | 17% | 20% | – | – | –
2 | CCCCCCCN(Cc1ccc(CC(C)C)cc1)C(=O)Nc1ccc(Cl)cc1C [1-(n-Heptyl)-1-[4-(isobutyl)benzyl]-3-(4-chloro-2-methylphenyl)urea] | 1.84 µM | – | 56% | 62% | – | – | –
3 | CCCCCCCN(Cc1ccc(CCC(C)C)cc1)C(=O)Nc1c(C)cc(Cl)cc1C [1-(n-Heptyl)-1-[4-(isopentyl)benzyl]-3-(4-chloro-2,6-dimethylphenyl)urea] | 0.13 µM | – | 10% | 17% | – | – | –
4 | CCCCCCCN(Cc1ccc(C(C)C)cc1)C(=O)Nc1c(F)cc(F)cc1F [1-(n-Heptyl)-1-[4-(isopropyl)benzyl]-3-(2,4,6-trifluorophenyl)urea] | 0.35 µM | – | 23% | 40% | – | – | –
5 | CCCCCCCN(Cc1ccc(CCCC)cc1)C(=O)Nc1cc(C)c(Cl)cc1C [1-(n-Heptyl)-1-[4-(n-butyl)benzyl]-3-(4-chloro-2,5-dimethylphenyl)urea] | – | – | – | – | 19% | 48% | 90%
6 | CCCCCCCN(Cc1ccc(CCCC)cc1)C(=O)Nc1c(C)cc(Cl)cc1C [1-(n-Heptyl)-1-[4-(n-butyl)benzyl]-3-(4-chloro-2,6-dimethylphenyl)urea] | – | – | – | – | 11% | 31% | 90%
7 | CCCCCCCN(Cc1ccc(OCCCC)cc1)C(=O)Nc1ccc(Cl)cc1Cl [1-(n-Heptyl)-(4-n-butoxybenzyl)-3-(2,4-dichlorophenyl)urea] | – | 79.9% | – | – | 50% | 68% | –
8 | CCCCCCCN(Cc1ccc(OCCCC)cc1)C(=O)Nc1ccc(Cl)cc1C(F)(F)F [1-(n-Heptyl)-(4-n-butoxybenzyl)-3-(2-trifluoromethyl-4-chlorophenyl)urea] | – | 89.4% | – | – | 35% | 59% | –
9 | CCCCOc1ccc(CN(Cc2ccccc2)C(=O)Nc2c(Cl)cc(Cl)cc2Cl)cc1 [1-Benzyl-1-(4-n-butoxybenzyl)-3-(2,4,6-trichlorophenyl)urea] | – | 95.2% | – | – | 8% | 40% | –
10 | CCCCOc1ccc(CN(Cc2ccccc2)C(=O)Nc2ccc(Cl)cc2Cl)cc1 [1-Benzyl-1-(4-n-butoxybenzyl)-3-(2,4-dichlorophenyl)urea] | – | 80% | – | – | 49% | 53% | –
11 | CCCCOc1ccc(CN(Cc2ccccc2)C(=O)Nc2ccc(F)cc2F)cc1 [1-Benzyl-1-(4-n-butoxybenzyl)-3-(2,4-difluorophenyl)urea] | – | 88% | – | – | 22% | 53% | –
12 | CCCCOc1ccc(CN(Cc2ccccc2)C(=O)Nc2ccc(Cl)cc2C(F)(F)F)cc1 [1-Benzyl-1-(4-n-butoxybenzyl)-3-(2-trifluoromethyl-4-chlorophenyl)urea] | – | 85% | – | – | 31% | 58% | –
13 | Cc1cc(C)c(NC(=O)N(Cc2ccccc2)C(Cc2ccccc2)c2ccc(OCc3ccccc3)cc2)c(C)c1 (stereo not drawn) [1-Benzyl-1-[2-phenyl-1-(4-benzyloxyphenyl)ethyl]-3-(2,4,6-trimethylphenyl)urea] | – | – | – | – | 49% | 60% | 90%

The next lines start with results.

Row | IC50 ([1]; rat adrenal ACAT) | inhibition at 5.2 µg/mL [1, 4] | SMILES | response vs control in vivo at 0.01 % (cholesterol absorption; [2]) | response vs control in vivo at 0.01 % (cholesterol absorption; [3]) | response vs control in vivo at 0.03 % (cholesterol absorption; [2]) | response vs control in vivo at 0.03 % (cholesterol absorption; [3]) | inhibition at 5.2 µg/mL [1]
14 | 1.17 µM | – | CCCCCCCN(Cc1ccc(C(C)C)cc1)C(=O)Nc1ccc(F)cc1F [1-(n-Heptyl)-1-[4-(isopropyl)benzyl]-3-(2,4-difluorophenyl)urea] | 64% | 77% | – | – | –
15 | 0.2 µM | – | CCCCCCCN(Cc1ccc(C(C)C)cc1)C(=O)Nc1c(C)cc(Cl)cc1C [1-(n-Heptyl)-1-[4-(isopropyl)benzyl]-3-(4-chloro-2,6-dimethylphenyl)urea] | 20% | 35% | – | – | –
16 | 1.74 µM | – | CCCCCCCN(Cc1ccc(C(C)C)cc1)C(=O)Nc1ccc(Cl)cc1C [1-(n-Heptyl)-1-[4-(isopropyl)benzyl]-3-(4-chloro-2-methylphenyl)urea] | 75% | 60% | – | – | –
17 | – | 95% | Cc1ccc(NC(=O)N(Cc2ccccc2)C(Cc2ccccc2)c2ccccc2)c(C)c1 (stereo not drawn) [1-Benzyl-1-(1,2-diphenylethyl)-3-(2,4-dimethylphenyl)urea] | – | – | 63% | 52% | –
18 | – | 95.8% | CCCCOc1ccc(CN(Cc2ccccc2)C(=O)Nc2cc(C)c(C)cc2C)cc1 [1-Benzyl-1-(4-butyloxybenzyl)-3-(2,4,5-trimethylphenyl)urea] | – | – | 12% | 43% | –
19 | – | 91.7% | CCCCOc1ccc(CN(Cc2ccccc2)C(=O)Nc2ccc(C)cc2C)cc1 [1-Benzyl-1-(4-butyloxybenzyl)-3-(2,4-dimethylphenyl)urea] | – | – | 15% | 48% | –
20 | – | 90.5% | CCCCc1ccc(CN(Cc2ccccc2)C(=O)Nc2cc(C)c(C)cc2C)cc1 [1-Benzyl-1-(4-n-butylbenzyl)-3-(2,4,5-trimethylphenyl)urea] | – | – | 10% | 50% | –
21 | – | 92.8% | CCCCc1ccc(CN(Cc2ccccc2)C(=O)Nc2c(C)cc(C)cc2C)cc1 [1-Benzyl-1-(4-n-butylbenzyl)-3-(2,4,6-trimethylphenyl)urea] | – | – | 13% | 53% | –
22 | – | 91.9% | CCCCc1ccc(CN(Cc2ccccc2)C(=O)Nc2ccc(C)cc2C)cc1 [1-Benzyl-1-(4-n-butylbenzyl)-3-(2,4-dimethylphenyl)urea] | – | – | 20% | 41% | –
23 | – | 94.3% | CCCCc1ccc(CN(Cc2ccccc2)C(=O)Nc2ccc(Cl)cc2C)cc1 [1-Benzyl-1-(4-n-butylbenzyl)-3-(2-methyl-4-chlorophenyl)urea] | – | – | 21% | 70% | –
24 | – | 92% | CCCCc1ccc(CN(Cc2ccccc2)C(=O)Nc2ccc(CCCC)cc2)cc1 [1-Benzyl-1-(4-n-butylbenzyl)-3-(4-n-butylphenyl)urea] | – | – | 61% | 53% | –
25 | – | 89% | CCCCOc1ccc(CN(Cc2ccccc2)C(=O)Nc2cc(Cl)c(Cl)cc2Cl)cc1 [1-Benzyl-1-(4-n-butyloxybenzyl)-3-(2,4,5-trichlorophenyl)urea] | – | – | 65% | 66% | –
26 | – | 87.8% | CCCCN(Cc1ccccc1)C(=O)Nc1c(Cl)cc(Cl)cc1Cl [1-Benzyl-1-( -n-butyl)-3-(2,4,6-trichlorophenyl)urea] | – | – | 32% | 48% | –
27 | – | 83.1% | CCCCN(Cc1ccccc1)C(=O)Nc1c(C)cccc1C [1-Benzyl-1-( -n-butyl)-3-(2,6-dimethylphenyl)urea] | – | – | 91% | 68% | –
28 | – | 94.2% | CCCCN(Cc1ccccc1)C(=O)Nc1cc(C)cc(C)c1 [1-Benzyl-1-( -n-butyl)-3-(3,5-dimethylphenyl)urea] | – | – | 75% | 93% | –
29 | – | 91.3% | CCCCN(Cc1ccccc1)C(=O)Nc1ccc(C)cc1C [1-Benzyl-1-(n-butyl)-3-(2,4-dimethylphenyl)urea] | – | – | 65% | 70% | –
30 | – | 95% | O=C(Nc1c(Cl)cc(Cl)cc1Cl)N(Cc1ccccc1)C(Cc1ccccc1)c1ccc(OCc2ccccc2)cc1 (stereo not drawn) [1-Benzyl-1-[2-phenyl-1-(4-benzyloxyphenyl)ethyl]-3-(2,4,6-trichlorophenyl)urea] | – | – | 64% | 95% | –
